Assay results published in patent US12612384B2, “Heterocyclic CYP4A inhibitor compounds and compositions thereof” (MBD CO., LTD., priority 2021, dated 2026).

The compounds below were run against T1, CYP4A (Homo sapiens, UniProt Q02928) (assay: CYP4A enzyme assay (luminescence, Luciferin-ME)). Conditions: Compound concentration 5 μM; 50%-70%; read-out: % Inhibition 50%-70%.
T1 construct: purchased; host or cells: bacterial membranes ('bactosome')
T1 sequence (Q02928 5-519): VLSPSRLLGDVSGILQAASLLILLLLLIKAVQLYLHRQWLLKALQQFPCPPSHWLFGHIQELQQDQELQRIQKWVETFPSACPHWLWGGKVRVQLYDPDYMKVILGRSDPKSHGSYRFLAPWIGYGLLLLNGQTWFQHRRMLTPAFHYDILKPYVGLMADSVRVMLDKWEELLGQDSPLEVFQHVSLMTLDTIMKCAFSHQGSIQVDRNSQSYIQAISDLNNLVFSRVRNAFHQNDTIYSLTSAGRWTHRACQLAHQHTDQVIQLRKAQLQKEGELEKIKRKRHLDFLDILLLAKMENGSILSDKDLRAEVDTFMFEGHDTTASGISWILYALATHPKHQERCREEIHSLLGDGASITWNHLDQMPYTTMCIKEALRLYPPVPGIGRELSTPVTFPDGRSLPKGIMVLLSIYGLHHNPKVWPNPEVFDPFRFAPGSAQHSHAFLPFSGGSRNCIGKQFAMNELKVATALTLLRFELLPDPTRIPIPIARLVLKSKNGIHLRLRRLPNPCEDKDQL
Type: biochemical
In short: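 Compounds (5 μM) were preincubated 15 min at room temperature with CYP4A bactosomes in 100 mM KPO4, 0.1% BSA, 1 mM DTT. Reaction ran 30 min at room temperature after adding 5 mM Luciferin-ME and NADPH regeneration system. Luminescence after 15 min with detection reagent; inhibition judged by comparing well signals.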

Row | Compound | inhibition at 5 µM [%]
1 | Cc1ccc(S(=O)(=O)N2CCCC(C(=O)N3CCN(c4ncnc5ccccc45)CC3)C2)cc1 (centres unmarked) [Example 75, (4-(quinazolin-4-yl)piperazin-1-yl)(1-tosylpiperidin-3-yl)methanone] | 50 to 70
2 | CC(=O)Nc1ccc(S(=O)(=O)N2CCCC(C(=O)N3CCN(c4nc(C)nc5ccccc45)CC3)C2)cc1 (centres unmarked) [Example 79, N-(4-(3-(1-(2-methylquinazolin-4-yl)piperazine-4-carbonyl)piperidin-1-ylsulfonyl)phenyl)acetamide] | 50 to 70
3 | Cc1nc(N2CCN(C(=O)C3CCCN(S(=O)(=O)c4ccc(F)cc4)C3)CC2)c2ccccc2n1 (centres unmarked) [Example 81, (1-(4-fluorophenylsulfonyl)piperidin-3-yl)(4-(2-methylquinazolin-4-yl)piperazin-1-yl)methanone] | 50 to 70
4 | Cc1nc(N2CCN(C(=O)C3CCCN(S(=O)(=O)c4ccc(N(C)C)cc4)C3)CC2)c2ccccc2n1 (centres unmarked) [Example 82, (1-(4-(dimethylamino)phenylsulfonyl)piperidin-3-yl)(4-(2-methylquinazolin-4-yl)piperazin-1-yl)methanone] | 50 to 70
5 | O=C(C1CCCN(C(=O)C2CCCCC2)C1)N1CCN(c2ccnc3cc(Cl)ccc23)CC1 (centres unmarked) [Example 86, (4-(7-chloroquinolin-4-yl)piperazin-1-yl)(1-(cyclohexylcarbonyl)piperidin-3-yl)methanone] | 50 to 70

The remaining lines, values ahead:

Row | inhibition at 5 µM [%] | Compound
6 | 50 to 70 | COc1ccc(C(=O)N2CCCC(C(=O)N3CCN(c4ccnc5cc(Cl)ccc45)CC3)C2)cc1 (centres unmarked) [Example 88, (4-(7-chloroquinolin-4-yl)piperazin-1-yl)(1-(4-methoxyphenylcarbonyl)piperidin-3-yl)methanone]
7 | 50 to 70 | COc1ccc2c(N3CCN(C(=O)C4CCCN(C(=O)c5ccccc5)C4)CC3)ccnc2c1 (centres unmarked) [Example 91, (1-benzoylpiperidin-3-yl)(4-(7-methoxyquinolin-4-yl)piperazin-1-yl)methanone]
8 | 50 to 70 | COc1ccc2c(N3CCN(C(=O)C4CCCN(C(=O)C5CCCCC5)C4)CC3)ccnc2c1 (centres unmarked) [Example 92, (4-(7-methoxyquinolin-4-yl)piperazin-1-yl)(1-(cyclohexylcarbonyl)piperidin-3-yl)methanone]
9 | 50 to 70 | COc1ccc(C(=O)N2CCCC(C(=O)N3CCN(c4ccnc5cc(OC)ccc45)CC3)C2)cc1 (centres unmarked) [Example 94, (4-(7-methoxyquinolin-4-yl)piperazin-1-yl)(1-(4-methoxyphenylcarbonyl)piperidin-3-yl)methanone]
10 | 50 to 70 | CC(=O)Nc1ccc(C(=O)N2CCCC(C(=O)N3CCN(c4cc(C(F)(F)F)nc5ccccc45)CC3)C2)cc1 (centres unmarked) [Example 95, N-(4-(3-(1-(2-(trifluoromethyl)quinolin-4-yl)piperazine-4-carbonyl)piperidine-1-carbonyl)phenyl)acetamide]
11 | 50 to 70 | O=C(c1ccc(F)cc1)N1CCCC(C(=O)N2CCN(c3cc(C(F)(F)F)nc4ccccc34)CC2)C1 (centres unmarked) [Example 96, (1-(4-fluorobenzoyl)piperidin-3-yl)(4-(2-(trifluoromethyl)quinolin-4-yl)piperazin-1-yl)methanone]
12 | 50 to 70 | O=C(c1ccncc1)N1CCCC(C(=O)N2CCN(c3cc(C(F)(F)F)nc4ccccc34)CC2)C1 (centres unmarked) [Example 98, (1-isonicotinoylpiperidin-3-yl)(4-(2-(trifluoromethyl)quinolin-4-yl)piperazin-1-yl)methanone]
13 | 50 to 70 | COc1ccc(C(=O)N2CCCC(C(=O)N3CCN(c4cc(C(F)(F)F)nc5ccccc45)CC3)C2)cc1 (centres unmarked) [Example 99, (1-(4-methoxybenzoyl)piperidin-3-yl)(4-(2-(trifluoromethyl)quinolin-4-yl)piperazin-1-yl)methanone]
14 | 50 to 70 | CC(=O)Nc1ccc(C(=O)N2CCCC(C(=O)N3CCN(c4cc(C)nc5ccccc45)CC3)C2)cc1 (centres unmarked) [Example 100, N-(4-(3-(1-(2-methylquinolin-4-yl)piperazine-4-carbonyl)piperidine-1-carbonyl)phenyl)acetamide]
15 | 50 to 70 | Cc1cc(N2CCN(C(=O)C3CCCN(C(=O)c4ccc(F)cc4)C3)CC2)c2ccccc2n1 (centres unmarked) [Example 101, (1-(4-fluorobenzoyl)piperidin-3-yl)(4-(2-methylquinolin-4-yl)piperazin-1-yl)methanone]
16 | 50 to 70 | Cc1cc(N2CCN(C(=O)C3CCCN(C(=O)c4ccccc4)C3)CC2)c2ccccc2n1 (centres unmarked) [Example 102, (1-benzoylpiperidin-3-yl)(4-(2-methylquinolin-4-yl)piperazin-1-yl)methanone]

Same assay, conditions: Compound concentration 5 μM; 70%-90%; read-out: % Inhibition 70%-90%

Row | Compound | inhibition at 5 µM [%]
17 | Nc1cccc(S(=O)(=O)N2CC(C(=O)N3CCN(c4ccnc5cc(F)ccc45)CC3)C2)c1 [Example 72, (1-((3-aminophenyl)sulfonyl)azetidin-3-yl)(4-(7-fluoroquinolin-4-yl)piperazin-1-yl)methanone] | 70 to 90
18 | CC(=O)Nc1ccc(S(=O)(=O)N2CCCC(C(=O)N3CCN(c4ncnc5ccccc45)CC3)C2)cc1 (centres unmarked) [Example 74, N-(4-((3-(4-(quinazolin-4-yl)piperazine-1-carbonyl)piperidin-1-yl)sulfonyl)phenyl)acetamide] | 70 to 90
19 | O=C(C1CCCN(S(=O)(=O)c2ccc(F)cc2)C1)N1CCN(c2ncnc3ccccc23)CC1 (centres unmarked) [Example 76, (1-((4-fluorophenyl)sulfonyl)piperidin-3-yl)(4-(quinazolin-4-yl)piperazin-1-yl)methanone] | 70 to 90
20 | CN(C)c1ccc(S(=O)(=O)N2CCCC(C(=O)N3CCN(c4ncnc5ccccc45)CC3)C2)cc1 (centres unmarked) [Example 77] | 70 to 90
21 | O=C(C1CCCN(S(=O)(=O)c2ccc(O)cc2)C1)N1CCN(c2ncnc3ccccc23)CC1 (centres unmarked) [Example 78, (1-((4-hydroxyphenyl)sulfonyl)piperidin-3-yl)(4-(quinazolin-4-yl)piperazin-1-yl)methanone] | 70 to 90
22 | O=C(c1ccc(F)cc1)N1CCCC(C(=O)N2CCN(c3ccnc4cc(Cl)ccc34)CC2)C1 (centres unmarked) [Example 84, (4-(7-chloroquinolin-4-yl)piperazin-1-yl)(1-(4-fluorophenylcarbonyl)piperidin-3-yl)methanone] | 70 to 90
23 | O=C(c1ccccc1)N1CCCC(C(=O)N2CCN(c3ccnc4cc(Cl)ccc34)CC2)C1 (centres unmarked) [Example 85, (4-(7-chloroquinolin-4-yl)piperazin-1-yl)(1-(phenylcarbonyl)piperidin-3-yl)methanone] | 70 to 90

Results, then the compound that gave them:

Row | inhibition at 5 µM [%] | Compound
24 | 70 to 90 | O=C(c1ccncc1)N1CCCC(C(=O)N2CCN(c3ccnc4cc(Cl)ccc34)CC2)C1 (centres unmarked) [Example 87, (4-(7-chloroquinolin-4-yl)piperazin-1-yl)(1-(pyridine-4-ylcarbonyl)piperidin-3-yl)methanone]
25 | 70 to 90 | COc1ccc2c(N3CCN(C(=O)C4CCCN(C(=O)c5ccc(NC(C)=O)cc5)C4)CC3)ccnc2c1 (centres unmarked) [Example 89, N-(4-(3-(4-(7-methoxyquinolin-4-yl)piperazine-1-carbonyl)piperidine-1-carbonyl)phenyl)acetamide]
26 | 70 to 90 | COc1ccc2c(N3CCN(C(=O)C4CCCN(C(=O)c5ccc(F)cc5)C4)CC3)ccnc2c1 (centres unmarked) [Example 90, (1-(4-fluorobenzoyl)piperidin-3-yl)(4-(7-methoxyquinolin-4-yl)piperazin-1-yl)methanone]
27 | 70 to 90 | COc1ccc2c(N3CCN(C(=O)C4CCCN(C(=O)c5ccncc5)C4)CC3)ccnc2c1 (centres unmarked) [Example 93, (4-(7-methoxyquinolin-4-yl)piperazin-1-yl)(1-(pyridine-4-ylcarbonyl)piperidin-3-yl)methanone]

Same assay, conditions: Compound concentration 5 μM; Greater than 90%; read-out: % Inhibition Greater than 90%

Row | inhibition at 5 µM [%] | Compound
28 | > 90 | O=C(C1CN(S(=O)(=O)c2cccc([N+](=O)[O-])c2)C1)N1CCN(c2ccnc3cc(F)ccc23)CC1 [Example 71, (4-(7-fluoroquinolin-4-yl)piperazin-1-yl)(1-((3-nitrophenyl)sulfonyl)azetidin-3-yl)methanone]
29 | > 90 | CC(=O)Nc1cccc(S(=O)(=O)N2CC(C(=O)N3CCN(c4ccnc5cc(F)ccc45)CC3)C2)c1 [Example 73, N-(3-((3-(4-(7-fluoroquinolin-4-yl)piperazine-1-carbonyl)azetidin-1-yl)sulfonyl)phenyl)acetamide]
30 | > 90 | CC(=O)Nc1ccc(C(=O)N2CCCC(C(=O)N3CCN(c4ccnc5cc(Cl)ccc45)CC3)C2)cc1 (centres unmarked) [Example 83, N-(4-(3-(1-(7-chloroquinolin-4-yl)piperazine-4-carbonyl)piperidine-1-carbonyl)phenyl)acetamide]

Same assay, conditions: Compound concentration 5 μM; Less than 50%; read-out: % Inhibition Less than 50%

Row | inhibition at 5 µM [%] | Compound
31 | < 50 | Cc1ccc(S(=O)(=O)N2CCCC(C(=O)N3CCN(c4nc(C)nc5ccccc45)CC3)C2)cc1 (centres unmarked) [Example 80, (4-(2-methylquinazolin-4-yl)piperazin-1-yl)(1-tosylpiperidin-3-yl)methanone]
32 | < 50 | O=C(C1CCCN(C(=O)C2CCCCC2)C1)N1CCN(c2cc(C(F)(F)F)nc3ccccc23)CC1 (centres unmarked) [Example 97, (1-(cyclohexylcarbonyl)piperidin-3-yl)(4-(2-(trifluoromethyl)quinolin-4-yl)piperazin-1-yl)methanone]
